Measured values from publication PMC13107025 (2025).

What was measured:
[1] = test system: dsDNA (DNA, duplex) CAATCGGATCGAATTCGATCCGATTG; assay: FRET melting (real-time PCR); settings: 50 mM KCl; Tris-HCl pH 7.4; 1 μM oligonucleotide, EKB 8 eq (8 μM)
[2] = test system: G4 (DNA, G4) GGGGAGGGGCTGGGAGGGCCCGGAGGGGGCTGGGCCGGGGACCCGGGAGGGGTCGGGACGGGGCGGGG; assay: FRET melting (real-time PCR); settings: 50 mM KCl; Tris-HCl pH 7.4; 1 μM oligonucleotide, EKB 8 eq (8 μM)
[3] = test system: c-Myc G4 (DNA, G4) GCGCTTATGGGGAGGGTGGGGAGGGTGGGGAAGGTGGGGAGGAGAC; assay: FRET melting (real-time PCR); settings: 50 mM KCl; Tris-HCl pH 7.4; 1 μM oligonucleotide, EKB 8 eq (8 μM)
[4] = test system: c-KIT G4 (DNA, G4) AGGGAGGGCGCTGGGAGGAGGGG; assay: FRET melting (real-time PCR); settings: 50 mM KCl; Tris-HCl pH 7.4; 1 μM oligonucleotide, EKB 8 eq (8 μM)
[5] = test system: Bcl-2 G4 (DNA, G4) CGGGCGGGAGCGCGGCGGGCGGGCGGG; assay: FRET melting (real-time PCR); settings: 50 mM KCl; Tris-HCl pH 7.4; 1 μM oligonucleotide, EKB 8 eq (8 μM)
[6] = test system: k-RAS G4 (DNA, G4) AGGGCGGTGTGGGAAGAGGGAAGAGGGGGAGG; assay: FRET melting (real-time PCR); settings: 50 mM KCl; Tris-HCl pH 7.4; 1 μM oligonucleotide, EKB 8 eq (8 μM)
[7] = test system: c-Myc G4 (UV titration) (DNA, G4) GCGCTTATGGGGAGGGTGGGGAGGGTGGGGAAGGTGGGGAGGAGAC; assay: UV-visible absorption titration; settings: 100 mM KCl; 10 mM Tris-HCl pH 7.4, room temperature; EKB 20 μM, G4:EKB 1:1 to 8:1
[8] = test system: Bcl-2 G4 (UV titration) (DNA, G4) CGGGCGGGAGCGCGGCGGGCGGGCGGG; assay: UV-visible absorption titration; settings: 100 mM KCl; 10 mM Tris-HCl pH 7.4, room temperature; EKB 20 μM, G4:EKB 1:1 to 8:1
[9] = test system: c-KIT G4 (UV titration) (DNA, G4) AGGGAGGGCGCTGGGAGGAGGGG; assay: UV-visible absorption titration; settings: 100 mM KCl; 10 mM Tris-HCl pH 7.4, room temperature; EKB 20 μM, G4:EKB 1:1 to 8:1
[10] = test system: k-RAS G4 (UV titration) (DNA, G4) AGGGCGGTGTGGGAAGAGGGAAGAGGGGGAGG; assay: UV-visible absorption titration; settings: 100 mM KCl; 10 mM Tris-HCl pH 7.4, room temperature; EKB 20 μM, G4:EKB 1:1 to 8:1

In the case of CC(C)=CCc1cc(-c2cc(=O)c3c(O)cc(O)c(CC=C(C)C)c3o2)cc(O)c1O, the ΔTm [1] is reported as “–1.16 °C”, the ΔTm [2] is reported as 2.12 °C and the ΔTm [3] is reported as 3.90 °C. The ΔTm [4] was 4.17 °C, the ΔTm [5] was 7.09 °C and the ΔTm [6] was 3.22 °C. For the same compound, the binding [7] was “yes”, the binding [8] was “yes” and the binding [9] was “yes”. The binding [10] was “yes”.
